Counter-ions that a name gives are not always drawn. Like-named read-outs stand apart in the source and are kept apart here.
Columns and labels:
Assay type in all cases: cell-based
[1] = target: EGFR(D770_N771insSVD) expressing Ba/F3 stable cell line (Homo sapiens, UniProt P00533, DUP768-770, cells depend on it); experiment: Cellular proliferation (Alamar Blue) assay, EGFR D770_N771insSVD Ba/F3; details: 72 hr, read-out: D770 IC50
How it was run: (§1)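 Proliferation of mutant-dependent Ba/F3 lines is measured by Alamar Blue reduction over 3 hours, following a 72 hr incubation with test compound spanning 10-0.0005 μM final in threefold dilutions. Cells go in at 15,000 per well in RPMI containing 10% FBS the day before dosing.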

[2] = target: EGFR (A767_dupASV) expressing Ba/F3 stable cell line (Homo sapiens, UniProt P00533, DUP767-769, cells depend on it); experiment: Cellular proliferation (Alamar Blue) assay, EGFR A767_dupASV Ba/F3; details: 72 hr, read-out: A767 IC50
EGFR (A767_dupASV) expressing Ba/F3 stable cell line, sequence (P00533 with tags, fused parts or gaps DUP767-769): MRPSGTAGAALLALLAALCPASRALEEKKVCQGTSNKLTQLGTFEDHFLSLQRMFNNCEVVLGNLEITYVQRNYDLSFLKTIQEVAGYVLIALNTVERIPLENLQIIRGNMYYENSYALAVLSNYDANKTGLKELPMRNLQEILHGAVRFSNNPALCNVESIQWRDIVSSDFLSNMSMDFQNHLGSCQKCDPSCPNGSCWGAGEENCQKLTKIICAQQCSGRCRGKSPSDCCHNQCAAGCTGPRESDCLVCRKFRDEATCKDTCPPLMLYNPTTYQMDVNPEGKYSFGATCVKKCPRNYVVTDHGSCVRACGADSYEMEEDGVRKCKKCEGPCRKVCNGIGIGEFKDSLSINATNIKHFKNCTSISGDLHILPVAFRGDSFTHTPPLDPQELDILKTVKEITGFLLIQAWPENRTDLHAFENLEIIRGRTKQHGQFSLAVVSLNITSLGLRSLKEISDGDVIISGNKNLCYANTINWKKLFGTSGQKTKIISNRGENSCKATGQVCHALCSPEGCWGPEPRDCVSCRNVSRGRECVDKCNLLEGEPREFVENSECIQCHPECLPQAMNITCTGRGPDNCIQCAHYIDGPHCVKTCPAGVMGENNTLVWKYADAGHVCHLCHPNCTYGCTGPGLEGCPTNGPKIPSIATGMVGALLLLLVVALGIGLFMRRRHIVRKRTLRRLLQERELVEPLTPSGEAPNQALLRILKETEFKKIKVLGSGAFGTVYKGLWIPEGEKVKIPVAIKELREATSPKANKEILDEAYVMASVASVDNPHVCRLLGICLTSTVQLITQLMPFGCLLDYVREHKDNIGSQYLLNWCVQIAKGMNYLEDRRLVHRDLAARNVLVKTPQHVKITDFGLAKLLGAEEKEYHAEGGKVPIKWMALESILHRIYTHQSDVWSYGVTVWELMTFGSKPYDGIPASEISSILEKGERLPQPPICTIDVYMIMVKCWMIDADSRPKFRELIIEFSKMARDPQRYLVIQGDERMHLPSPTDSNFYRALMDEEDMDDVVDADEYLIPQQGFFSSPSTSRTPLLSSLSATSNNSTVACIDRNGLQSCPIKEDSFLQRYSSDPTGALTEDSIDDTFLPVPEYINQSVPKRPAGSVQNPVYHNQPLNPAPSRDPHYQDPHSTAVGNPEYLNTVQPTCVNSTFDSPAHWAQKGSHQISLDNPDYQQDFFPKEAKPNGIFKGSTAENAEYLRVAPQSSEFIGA
How it was run: as §1

A431 cells = experiment: Cellular proliferation (Alamar Blue) assay, A431
[3] = target: EGFR (H773insNPH) expressing Ba/F3 stable cell line (Homo sapiens, UniProt P00533, DUP771-773, cells depend on it); experiment: Cellular proliferation (Alamar Blue) assay, EGFR H773insNPH Ba/F3; details: 72 hr, read-out: NPH IC50
EGFR (H773insNPH) expressing Ba/F3 stable cell line, sequence (P00533 with tags, fused parts or gaps DUP771-773): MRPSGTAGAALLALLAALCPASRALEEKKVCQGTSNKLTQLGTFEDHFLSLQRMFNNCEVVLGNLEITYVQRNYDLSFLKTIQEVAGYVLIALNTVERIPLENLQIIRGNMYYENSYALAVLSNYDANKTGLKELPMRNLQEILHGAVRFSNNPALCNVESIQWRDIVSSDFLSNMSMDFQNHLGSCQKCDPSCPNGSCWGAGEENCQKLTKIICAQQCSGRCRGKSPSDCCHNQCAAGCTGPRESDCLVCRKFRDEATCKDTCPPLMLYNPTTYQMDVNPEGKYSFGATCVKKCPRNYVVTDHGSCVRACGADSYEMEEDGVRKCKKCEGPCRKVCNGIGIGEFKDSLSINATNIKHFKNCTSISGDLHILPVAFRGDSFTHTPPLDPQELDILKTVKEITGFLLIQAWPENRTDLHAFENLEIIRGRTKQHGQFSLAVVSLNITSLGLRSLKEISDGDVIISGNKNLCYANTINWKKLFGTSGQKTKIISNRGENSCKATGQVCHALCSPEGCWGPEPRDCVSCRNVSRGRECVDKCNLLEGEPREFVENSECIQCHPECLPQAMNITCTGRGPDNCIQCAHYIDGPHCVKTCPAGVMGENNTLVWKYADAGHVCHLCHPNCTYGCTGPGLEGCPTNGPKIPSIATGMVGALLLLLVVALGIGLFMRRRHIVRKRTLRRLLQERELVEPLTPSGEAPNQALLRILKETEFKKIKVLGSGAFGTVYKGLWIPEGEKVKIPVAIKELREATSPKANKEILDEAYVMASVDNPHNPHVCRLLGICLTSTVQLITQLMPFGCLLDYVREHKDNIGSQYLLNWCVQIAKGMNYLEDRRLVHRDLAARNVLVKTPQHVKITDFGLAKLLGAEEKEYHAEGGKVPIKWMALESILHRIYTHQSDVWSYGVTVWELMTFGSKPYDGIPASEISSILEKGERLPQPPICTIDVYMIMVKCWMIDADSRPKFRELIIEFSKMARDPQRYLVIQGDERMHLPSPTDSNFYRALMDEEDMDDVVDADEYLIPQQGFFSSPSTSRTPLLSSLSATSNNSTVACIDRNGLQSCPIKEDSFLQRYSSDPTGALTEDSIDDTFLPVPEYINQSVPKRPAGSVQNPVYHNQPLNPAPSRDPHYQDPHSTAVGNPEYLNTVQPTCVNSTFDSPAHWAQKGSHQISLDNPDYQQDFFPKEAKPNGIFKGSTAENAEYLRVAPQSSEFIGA
Protocol: • 1. EGFR(D770_N771insSVD) expressing Ba/F3 stable cell line • 2. EGFR (A767_dupASV) expressing Ba/F3 stable cell line • 3. A431 cells • 4. EGFR (H773insNPH) expressing Ba/F3 stable cell line • 5. HER2 (A775_G776insYVMA) expressing Ba/F3 stable cell line Assay Procedure: • 1. Seed cells at 5000 for A431 and 15,000 cells for Ba/F3 in 100 μL/well in complete media (for A431: DMEM with […] and for Ba/F3 cells: RPMI with 10% FBS) in 96-well tissue culture plate. Leave outer wells without cells for background measurements. Incubate at 37 degree Celsius in […] humidified incubator for 16-18 hours. • 2. Add 0.025 ml of 5× concentration compound dilution or DMSO control. Final compound concentration range is 10-0.0005 μM prepared in 3-fold serial dilutions. Incubate for 72 hr at 37 degree Celsius in […] humidified incubator. • 3. Add 0.0125 ml Alamar Blue™ reagent to each well with multi-channel pipette and tap gently on each side of the plate to mix. Incubate for 3 hours at 37 degree Celsius in 5% CO2 humidified incubator. • 4. […] Data analysis was performed using XLfit 5.5.0.5.

[4] = target: HER2 (A775_G776insYVMA) expressing Ba/F3 stable cell line (Homo sapiens, UniProt P04626, DUP772-775, cells depend on it); experiment: Cellular proliferation (Alamar Blue) assay, HER2 A775_G776insYVMA Ba/F3; details: 72 hr, read-out: YVMA IC50
HER2 (A775_G776insYVMA) expressing Ba/F3 stable cell line, sequence (P04626 with tags, fused parts or gaps DUP772-775): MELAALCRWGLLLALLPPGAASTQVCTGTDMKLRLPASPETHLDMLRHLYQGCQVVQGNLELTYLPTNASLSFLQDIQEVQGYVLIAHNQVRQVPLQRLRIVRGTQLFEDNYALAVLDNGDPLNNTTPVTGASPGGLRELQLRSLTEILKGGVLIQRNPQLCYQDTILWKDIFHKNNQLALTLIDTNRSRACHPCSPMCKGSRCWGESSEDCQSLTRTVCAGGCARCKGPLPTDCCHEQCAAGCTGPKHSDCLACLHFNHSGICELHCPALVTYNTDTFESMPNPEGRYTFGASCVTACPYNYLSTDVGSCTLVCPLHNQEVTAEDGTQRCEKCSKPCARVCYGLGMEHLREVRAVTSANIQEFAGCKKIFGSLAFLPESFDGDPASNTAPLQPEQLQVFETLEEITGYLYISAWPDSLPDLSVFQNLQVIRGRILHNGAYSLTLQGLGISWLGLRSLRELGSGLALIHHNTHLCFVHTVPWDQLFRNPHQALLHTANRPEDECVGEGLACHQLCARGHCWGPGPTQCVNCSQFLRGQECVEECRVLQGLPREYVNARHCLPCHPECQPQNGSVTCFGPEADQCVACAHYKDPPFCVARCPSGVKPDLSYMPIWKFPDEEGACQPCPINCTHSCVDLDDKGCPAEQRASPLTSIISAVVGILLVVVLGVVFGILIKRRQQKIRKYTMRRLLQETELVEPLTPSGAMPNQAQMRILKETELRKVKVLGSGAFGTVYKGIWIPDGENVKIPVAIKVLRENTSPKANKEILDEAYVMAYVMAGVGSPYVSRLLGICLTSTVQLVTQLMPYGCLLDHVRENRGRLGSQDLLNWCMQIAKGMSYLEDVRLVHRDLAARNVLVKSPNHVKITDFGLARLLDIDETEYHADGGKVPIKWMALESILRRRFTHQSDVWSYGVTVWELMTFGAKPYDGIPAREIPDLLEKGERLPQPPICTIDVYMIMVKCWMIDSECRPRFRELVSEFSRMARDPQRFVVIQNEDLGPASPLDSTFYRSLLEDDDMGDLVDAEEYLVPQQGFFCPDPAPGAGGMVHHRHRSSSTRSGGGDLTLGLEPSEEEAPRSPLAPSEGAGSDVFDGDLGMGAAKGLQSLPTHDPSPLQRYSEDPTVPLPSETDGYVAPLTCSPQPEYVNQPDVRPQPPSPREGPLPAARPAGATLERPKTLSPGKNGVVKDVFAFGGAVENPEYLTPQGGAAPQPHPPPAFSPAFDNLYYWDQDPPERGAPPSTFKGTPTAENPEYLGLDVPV
How it was run: as §1

[5] = Homo sapiens, A-431; A431 cells, Alamar Blue, 72 hr; read-out: A431 IC50
[6] = Homo sapiens, A-431; A431 cells, 72 hr, Alamar Blue; read-out: A431 IC50

EGFR(D770_N771insSVD) expressing Ba/F3 stable cell line, sequence (P00533 with tags, fused parts or gaps DUP768-770): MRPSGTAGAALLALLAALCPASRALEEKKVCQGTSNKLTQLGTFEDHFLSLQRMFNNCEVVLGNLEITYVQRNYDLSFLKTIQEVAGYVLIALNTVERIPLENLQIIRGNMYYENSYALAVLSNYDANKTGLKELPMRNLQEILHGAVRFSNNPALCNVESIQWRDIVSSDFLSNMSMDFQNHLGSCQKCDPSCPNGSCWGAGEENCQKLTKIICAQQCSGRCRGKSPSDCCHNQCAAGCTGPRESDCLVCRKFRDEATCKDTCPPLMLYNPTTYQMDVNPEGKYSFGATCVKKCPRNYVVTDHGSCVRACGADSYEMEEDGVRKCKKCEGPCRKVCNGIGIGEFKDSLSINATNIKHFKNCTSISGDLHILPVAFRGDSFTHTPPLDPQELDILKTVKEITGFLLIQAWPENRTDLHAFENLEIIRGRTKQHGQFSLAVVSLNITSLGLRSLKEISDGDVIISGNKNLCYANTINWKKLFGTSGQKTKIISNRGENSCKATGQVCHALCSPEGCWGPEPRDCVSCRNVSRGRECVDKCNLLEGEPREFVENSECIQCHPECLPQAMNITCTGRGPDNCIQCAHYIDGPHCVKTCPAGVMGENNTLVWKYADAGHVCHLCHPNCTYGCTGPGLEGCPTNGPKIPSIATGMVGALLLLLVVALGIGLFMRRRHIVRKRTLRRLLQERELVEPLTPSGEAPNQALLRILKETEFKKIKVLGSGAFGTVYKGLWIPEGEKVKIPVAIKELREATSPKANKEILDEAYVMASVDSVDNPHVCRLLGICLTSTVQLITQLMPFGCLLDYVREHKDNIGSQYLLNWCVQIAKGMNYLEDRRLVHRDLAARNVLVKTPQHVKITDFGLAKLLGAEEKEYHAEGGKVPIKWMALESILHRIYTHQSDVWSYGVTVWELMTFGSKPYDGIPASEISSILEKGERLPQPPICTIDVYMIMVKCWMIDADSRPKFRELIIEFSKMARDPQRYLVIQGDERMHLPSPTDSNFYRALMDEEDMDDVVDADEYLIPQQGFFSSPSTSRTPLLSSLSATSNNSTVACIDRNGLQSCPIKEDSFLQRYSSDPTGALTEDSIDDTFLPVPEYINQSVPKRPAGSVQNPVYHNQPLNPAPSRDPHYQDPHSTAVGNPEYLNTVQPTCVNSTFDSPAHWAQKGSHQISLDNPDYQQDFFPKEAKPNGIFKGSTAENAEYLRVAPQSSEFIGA

| GI50 [1] [nM] | GI50 [2] [nM] | IC50 (A431 cells; [5]) [nM] | GI50 [3] [nM] | IC50 (A431 cells; [6]) [nM] | GI50 [4] [nM] | SMILES |
| --- | --- | --- | --- | --- | --- | --- |
| 1030 | 930 | 3920 | 796 | – | – | C=CC(=O)Nc1ccc(F)c(Nc2nc(Nc3cnn(C4CCC(O)CC4)c3)ncc2Cl)c1 (stereo not shown) [Compound 1, N-(3-((5-chloro-2-((1-(4-hydroxycyclohexyl)-1H-pyrazol-4-yl)amino)pyrimidin-4-yl)amino)-4-fluorophenyl)acrylamide] |
| 7950 | 3000 | 7100 | 4740 | – | – | C=CC(=O)Nc1ccc(F)c(Nc2nc(Nc3ccc(OC)nc3)ncc2Cl)c1 [Compound 22, N-(3-((5-chloro-2-((6-methoxypyridin-3-yl)amino)pyrimidin-4-yl)amino)-4-fluorophenyl)acrylamide] |
| > 10000 | 9920 | > 10000 | 4470 | – | – | C=C(F)C(=O)Nc1ccc(F)c(Nc2nc(Nc3cnn(C)c3)ncc2Cl)c1 [Compound 23, N-(3-((5-chloro-2-((1-methyl-1H-pyrazol-4-yl)amino)pyrimidin-4-yl)amino)-4-fluorophenyl)-2-fluoroacrylamide] |
| > 10000 | > 10000 | > 10000 | 4130 | – | – | C=C(F)C(=O)NC1CCCC(Nc2nc(Nc3cnn(C)c3)ncc2Cl)C1 (stereo not shown) [Compound 24] |
| > 10000 | > 10000 | > 10000 | > 10000 | – | – | C=C(F)C(=O)N1CCCC(Nc2nc(Nc3cnn(C)c3)ncc2Cl)C1 (stereo not shown) [Compound 25, 1-(3-((5-chloro-2-((1-methyl-1H-pyrazol-4-yl)amino)pyrimidin-4-yl)amino)piperidin-1-yl)-2-fluoroprop-2-en-1-one] |
| 4860 | 2450 | 7410 | 2090 | – | – | C=CC(=O)Nc1ccc(F)c(Nc2nc(Nc3cnn(CC(C)(C)O)c3)ncc2Cl)c1 [Compound 26, N-(3-((5-chloro-2-((1-(2-hydroxy-2-methylpropyl)-1H-pyrazol-4-yl)amino)pyrimidin-4-yl)amino)-4-fluorophenyl)acrylamide] |
| 3130 | 2240 | > 10000 | 3010 | – | – | C=CC(=O)Nc1cccc(Nc2nc(Nc3cnn(C)c3)ncc2NC(=O)c2ccccc2)c1 [Compound 28, N-(4-((3-acrylamidophenyl)amino)-2-((1-methyl-1H-pyrazol-4-yl)amino)pyrimidin-5-yl)benzamide] |
| 9520 | 9310 | > 10000 | > 10000 | – | – | C=CC(=O)Nc1cccc(Nc2nc(Nc3cnn(C)c3)ncc2C(=O)NC(C)c2ccccc2)c1 (stereo not shown) [Compound 34, 4-((3-acrylamidophenyl)amino)-2-((1-methyl-1H-pyrazol-4-yl)amino)-N-(1-phenylethyl)pyrimidine-5-carboxamide] |
| 3260 | 982 | 6560 | > 10000 | – | – | COc1cc(N2CCCCC2)ccc1Nc1ncc(C(=O)N(C)c2ccccc2)c(Nc2cccc(NC(=O)/C=C/CN(C)C)c2)n1 [Compound 52, (E)-4-((3-(4-(dimethylamino)but-2-enamido)phenyl)amino)-2-((2-methoxy-4-(piperidin-1-yl)phenyl)amino)-N-methyl-N-phenylpyrimidine-5-carboxamide] |
| 873 | 1020 | 7300 | 1890 | – | – | CN(C)C/C=C/C(=O)Nc1cccc(Nc2nc(Nc3cn(C)nc3Cl)ncc2-c2ccc(C(F)(F)F)cc2)c1 [Compound 53, (E)-N-(3-((2-((3-chloro-1-methyl-1H-pyrazol-4-yl)amino)-5-(4-(trifluoromethyl)phenyl)pyrimidin-4-yl)amino)phenyl)-4-(dimethylamino)but-2-enamide] |
| 296 | 1040 | 4530 | 380 | – | – | CN(C)C/C=C/C(=O)Nc1cccc(Nc2nc(Nc3cn(C)nc3Cl)ncc2C(F)(F)F)c1 [Compound 54, (E)-N-(3-((2-((3-chloro-1-methyl-1H-pyrazol-4-yl)amino)-5-(trifluoromethyl)pyrimidin-4-yl)amino)phenyl)-4-(dimethylamino)but-2-enamide] |
| – | 13 | 56 | 30 | – | – | C=CC(=O)Nc1ccc(F)c(Nc2nc(Nc3cnn(C)c3)ncc2-c2ccc(Cl)nc2)c1 [Compound 101, N-(3-((5-(6-chloropyridin-3-yl)-2-((1-methyl-1H-pyrazol-4-yl)amino)pyrimidin-4-yl)amino)-4-fluorophenyl)acrylamide] |
| 35 | 31 | 168 | 48 | – | – | C=CC(=O)Nc1ccc(F)c(Nc2nc(Nc3cnn(C)c3)ncc2-c2cncc(Cl)c2)c1 [Compound 102, N-(3-((5-(5-chloropyridin-3-yl)-2-((1-methyl-1H-pyrazol-4-yl)amino)pyrimidin-4-yl)amino)-4-fluorophenyl)acrylamide] |
| 24 | 16 | – | 30 | – | – | C=CC(=O)Nc1ccc(F)c(Nc2nc(Nc3cnn(C)c3)ncc2-c2cnc(C(F)(F)F)nc2)c1 [Compound 123, N-(4-fluoro-3-((2-((1-methyl-1H-pyrazol-4-yl)amino)-2′-(trifluoromethyl)-[5,5′-bipyrimidin]-4-yl)amino)phenyl)acrylamide] |
| > 10000 | > 10000 | > 10000 | > 10000 | – | – | C=CC(=O)Nc1ccc(F)c(Nc2nc(Nc3cnn(C)c3)ncc2-c2cccc(N(C)CCN(C)C)c2)c1 [Compound 125, N-(3-((5-(3-((2-(dimethylamino)ethyl)(methyl)amino)phenyl)-2-((1-methyl-1H-pyrazol-4-yl)amino)pyrimidin-4-yl)amino)-4-fluorophenyl)acrylamide] |
| 294 | 388 | 158 | 323 | – | – | C=CC(=O)Nc1ccc(F)c(Nc2nc(Nc3cnn(C)c3)ncc2-c2ccc3nccn3c2)c1 [Compound 133, N-(4-fluoro-3-((5-(imidazo[1,2-a]pyridin-6-yl)-2-((1-methyl-1H-pyrazol-4-yl)amino)pyrimidin-4-yl)amino)phenyl)acrylamide trifluoroacetate] |
| 99 | 128 | – | – | 120 | 402 | C=CC(=O)Nc1ccc(F)c(Nc2nc(Nc3cnn(C)c3)ncc2-c2csc(Cl)c2)c1 [Compound 298, N-(3-((5-(5-chlorothiophen-3-yl)-2-((1-methyl-1H-pyrazol-4-yl)amino)pyrimidin-4-yl)amino)-4-fluorophenyl)acrylamide] |
| 99 | 257 | – | – | 173 | 339 | C=CC(=O)Nc1ccc(F)c(Nc2nc(Nc3cnn(C)c3)ncc2-c2ccc3ccoc3c2)c1 [Compound 299, N-(3-((5-(benzofuran-6-yl)-2-((1-methyl-1H-pyrazol-4-yl)amino)pyrimidin-4-yl)amino)-4-fluorophenyl)acrylamide] |
| 1160 | 289 | – | – | 229 | 9740 | C=CC(=O)Nc1ccc(F)c(Nc2nc(Nc3cnn(C)c3)ncc2-c2ccc(Oc3cccc(F)c3)cc2)c1 [Compound 300, N-(4-fluoro-3-((5-(4-(3-fluorophenoxy)phenyl)-2-((1-methyl-1H-pyrazol-4-yl)amino)pyrimidin-4-yl)amino)phenyl)acrylamide] |
| 193 | 68 | – | – | 16 | 187 | CN(C)C/C=C/C(=O)Nc1ccc(F)c(Nc2nc(Nc3cnn(C)c3)ncc2-c2ccc(CC(F)(F)F)cc2)c1 [Compound 301, (E)-4-(dimethylamino)-N-(4-fluoro-3-((2-((1-methyl-1H-pyrazol-4-yl)amino)-5-(4-(2,2,2-trifluoroethyl)phenyl)pyrimidin-4-yl)amino)phenyl)but-2-enamide] |
| 99 | 67 | – | – | 12 | 653 | C=CC(=O)Nc1cc(Br)cc(Nc2nc(Nc3cnn(C)c3)ncc2-c2ccc(CC(F)(F)F)cc2)c1 [Compound 302, N-(3-bromo-5-((2-((1-methyl-1H-pyrazol-4-yl)amino)-5-(4-(2,2,2-trifluoroethyl)phenyl)pyrimidin-4-yl)amino)phenyl)acrylamide] |
